Experimental data reported in patent publication US20090324500A1, “SCREEN FOR INFLAMMATORY RESPONSE MODULATORS” (priority 2006, published 2009).

System: neutrophils
Assay: Tail transection injury in transgenic MPO:GFP zebrafish larvae, neutrophil counts at the site of injury
Format: in vivo
Description: AB strain zebrafish from existing aquarium stocks were maintained according to standard protocols. A BAC containing approx 130 kB of 5′ promoter sequence to the MPO gene was identified (zC91B8). This BAC was modified to contain an in-frame GFP sequence beginning at the translation start site of the MPO gene by recombinase activity as previously described (Lee, E. C. et al (2001) Genomics 73, 56-65). EL250 cells required for the recombination step were a kind gift of Dr. Neal Copeland, National Cancer Institute, Frederick, […]., USA. Insertion of the GFP sequence was confirmed by co-insertion of a kanamycin resistance gene, which in turn was flanked by FRT sites leading to its easy removal before introduction into the zebrafish. As part of this process a vector was created consisting of a truncated portion of the Bluescript vector, into which we had blunt cloned a construct consisting of GFP and the FRT-flanked Kanamycin resistance gene, all of which was flanked by MPO homology arms. Using this construct, we were able to add a Nuclear Localising Sequence corresponding to that used in the Clontech vector pEYFPnuc by PCR and self ligation.
The modified BACs were injected into fertilised AB zebrafish embryos at the 1-2 cell stage, and larvae screened at 36-48 hours for the presence of fluorescence. Fluorescent larvae were grown to maturity and either in- or out-crossed to identify germ cell carriage of the transgene.
A BAC containing over 100 kb of sequence 5′ to the Zebrafish MPO promoter was identified and modified to contain an in frame GFP sequence (FIG. 3). This was then injected into zebrafish embryos at the 1-cell stage and a transgenic line created. GFP expression recapitulates the expression of myeloperoxidase in cells whose morphology is consistent with neutrophil granulocytes (see FIG. 4). When these fish are injured, neutrophils accumulate at the site of injury over time (FIGS. 5 and 6).
Neutrophil number at the site of injury following tail transection can be assessed either by manual counting (FIG. 7a) or by automated image analysis (FIG. 7b).
Manipulation of the inflammatory response in transgenic zebrafish has been performed exemplifying the role of manipulation of granulocyte apoptosis in regulating the resolution of inflammation. […] P<0.05 for t=24, zVD.fmk treated vs all other groups (1 way ANOVA with Bonferroni post test correction).
In FIG. 8b counts of fluorescent cells in individual larvae were performed for fish in the presence or absence of the bacterial product Lipopolysaccharide (LPS). LPS was added at 6 hours post injury (hpi), and counts made at 6 and 24 hpi. […] In FIG. 8c, Pyocyanin (a bacterial pigment with pro-apoptotic effects on neutrophils) was added at 4 hpi, and counts made at 8 hpi.

Lipopolysaccharide [LPS]
% reduction in neutrophil numbers (added at 6 hpi, counts at 6 and 24 hpi, vs untreated fish, p<0.05, FIG. 8b): significantly lower

CC(C)[C@H](NC(=O)OCc1ccccc1)C(=O)NC(CC(=O)O)C(=O)CF (stereo partly shown) [zVD.fmk]
neutrophil numbers at the inflammatory site (resolution of inflammation) (between 6 hours and 24 hours after injury, FIG. 8a, P<0.05 at t=24 vs all other groups): persistence of neutrophil numbers | effect on granulocyte apoptosis (transgenic zebrafish, FIG. 8a): delays apoptosis

Cn1c2cccc(=O)c-2nc2ccccc21 [Pyocyanin]
absolute cell counts (neutrophil numbers) (added at 4 hpi, counts at 8 hpi, FIG. 8c): reduce neutrophil numbers
